Earlier results on four compounds are cited in patent US8581001B2, “Metformin-cysteine prodrug” (Codman & Shurtleff, priority 2010, dated 2013).

Molecules are shown by their SMILES.

For one series, the system named is human patients. The conditions noted are these: human patients (NASH).
Assay in series [1]: not given
The source holds these as a separate data set.

Another series deals with LAT1 (Homo sapiens, UniProt Q01650).
For another series, the target named is T1, LAT2 (Homo sapiens, UniProt Q9UHI5).
T1 sequence (Q9UHI5 1-535): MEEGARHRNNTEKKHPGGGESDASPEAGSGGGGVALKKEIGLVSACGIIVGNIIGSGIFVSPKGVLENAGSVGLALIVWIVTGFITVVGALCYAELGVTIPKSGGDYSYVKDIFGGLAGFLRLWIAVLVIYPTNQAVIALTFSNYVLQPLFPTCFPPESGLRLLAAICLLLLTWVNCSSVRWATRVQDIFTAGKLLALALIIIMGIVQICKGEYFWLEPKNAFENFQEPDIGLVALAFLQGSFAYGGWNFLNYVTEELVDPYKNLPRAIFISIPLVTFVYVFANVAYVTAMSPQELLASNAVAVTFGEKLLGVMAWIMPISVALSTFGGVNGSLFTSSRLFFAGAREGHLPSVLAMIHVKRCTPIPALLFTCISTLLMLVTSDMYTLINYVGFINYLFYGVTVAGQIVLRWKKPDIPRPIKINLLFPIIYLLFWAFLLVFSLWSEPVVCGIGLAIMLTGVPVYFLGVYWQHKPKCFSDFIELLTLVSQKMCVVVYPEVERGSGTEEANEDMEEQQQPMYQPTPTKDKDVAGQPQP
T1 sequence (P08195 1-529 partner): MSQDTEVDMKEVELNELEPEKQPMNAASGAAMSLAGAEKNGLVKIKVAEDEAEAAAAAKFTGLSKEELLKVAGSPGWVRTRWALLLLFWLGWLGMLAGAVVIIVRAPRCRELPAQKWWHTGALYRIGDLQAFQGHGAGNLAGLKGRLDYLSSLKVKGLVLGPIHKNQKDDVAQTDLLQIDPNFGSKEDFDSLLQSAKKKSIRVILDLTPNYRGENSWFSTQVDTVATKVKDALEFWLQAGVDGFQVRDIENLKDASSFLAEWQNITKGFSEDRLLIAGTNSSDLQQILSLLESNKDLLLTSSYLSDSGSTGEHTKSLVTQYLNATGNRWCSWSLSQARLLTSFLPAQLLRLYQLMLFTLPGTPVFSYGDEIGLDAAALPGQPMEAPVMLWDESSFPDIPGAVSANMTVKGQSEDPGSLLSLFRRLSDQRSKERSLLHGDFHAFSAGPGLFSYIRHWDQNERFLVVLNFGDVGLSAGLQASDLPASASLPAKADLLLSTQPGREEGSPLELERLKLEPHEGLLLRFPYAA

LAT1, sequence (Q01650 whole entry, species assumed, one chain of several): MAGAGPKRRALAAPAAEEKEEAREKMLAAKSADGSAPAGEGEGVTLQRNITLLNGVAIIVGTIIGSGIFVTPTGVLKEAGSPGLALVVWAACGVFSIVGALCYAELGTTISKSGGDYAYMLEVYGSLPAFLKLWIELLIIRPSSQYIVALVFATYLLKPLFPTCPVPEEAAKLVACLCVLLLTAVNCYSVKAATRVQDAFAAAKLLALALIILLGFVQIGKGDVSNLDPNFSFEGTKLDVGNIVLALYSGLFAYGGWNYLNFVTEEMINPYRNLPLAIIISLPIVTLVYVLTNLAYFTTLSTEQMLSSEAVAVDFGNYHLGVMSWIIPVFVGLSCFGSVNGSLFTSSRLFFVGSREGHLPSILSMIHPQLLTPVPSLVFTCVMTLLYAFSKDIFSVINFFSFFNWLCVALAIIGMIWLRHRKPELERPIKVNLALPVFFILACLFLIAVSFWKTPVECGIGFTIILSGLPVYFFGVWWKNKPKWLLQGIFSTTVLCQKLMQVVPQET

Regarding `N[C@@H](CCC(=O)N[C@@H](CSSC[C@H](N)C(=O)O)C(=O)NCC(=O)O)C(=O)O` [Cy-LLGSH], in the series on mice, the “protection against acetaminophen-induced hepatotoxicity” value is given as “highly effective”.
On to `CC(=O)N[C@@H](CS)C(=O)O` [NAC, n-acetylcysteine], for which the “amelioration of the complications of non-alcoholic fatty liver disease” value in the series with human patients is reported as “neither metformin nor NAC alone provided any significant benefits”.
For the compound `CN(C)C(=N)N=C(N)N` [metformin], in the series on human patients, the “amelioration of the complications of non-alcoholic fatty liver disease” value is “neither metformin nor NAC alone provided any significant benefits”. Moreover, the “window in which metformin is above ½ of its Cmax” value (FIG. 4 of US 2007-0154548) is listed as “about 6 hours”. Further, for the setting “in vivo”, the “time window for effective plasma concentrations” value is listed as “about 6 hours”. Further, in series [1] (colon), the “absorption in the colon” value is “poorly absorbed”. In addition, the “uptake in the small intestine” value in series [1] (small intestine) was “effectively taken up”.
`N[C@@H](CSN=O)C(=O)O` [s-nitroso-L-cysteine]: the “transport by LAT1 transporter” value on LAT1 was “efficiently transported”. Further, the “transport by LAT2 transporter” value at LAT2 is on record as “efficiently transported”.
